Source: US11246893B2, “Bacteriocin production, compositions and methods of use” (ISOThrive Inc., priority 2016, dated 2022)

What was measured:
[1] = precipitation noted in proliferation assay (FIG. 9E); format: physicochemical
Protocol: As illustrated, nisins can have some uncommon amino acids such as lanthionine (Lan), methyllanthionine (MeLan), didehydroalanine (Dha), and didehydroaminobutyric acid (Dhb). FIG. 9E graphically illustrates inhibition of HCT-15 and DLD-1 colorectal cancer cell proliferation and IC50 values obtained for nisins A and Z. The plot is representative of four triplicate tests including two each for HCT-15 and DLD-1 cells. Note that Nisin A began to precipitate at concentrations >400 μg/mL.

[2] = test system: Weissella viridescens NRRL B-1951; experiment: tube assay, W. viridescens growth with nisin A or Z (absorbance); format: cell-based
Protocol: 100 g De-Man, Rogosa and Sharpe (MRS) media was prepared in a 500 mL Erlenmeyer to contain 5.5% solids in deionized water (18.2 MΩ, Hydro Service and Supplies. Gaithersburg, Md.). The media was autoclaved (121° C. 15 min), cooled, and inoculated with 1 mL (0.5 mL culture+0.5 mL glycerol, 40%; frozen at −78° C.) of Weissella viridescens NRRL B-1951 (test strain). The culture was incubated at 31° C. overnight (15 Hr).
The next day, stock solutions of either nisin A or Z were prepared in deionized water to contain 31.3 and 33.7 μg/g of each peptide.
100 g MRS media was prepared to contain 5.5% solids. Two sets (one set each for nisin A and nisin Z) of eight Hach-type tubes (Kimble Chase 45066-16100) were prepared. Within each set, in order was added 5.00, 4.95, 4.90, 4.75, 4.50, 4.00, 3.50 and 3.00 g MRS media. The tubes were sealed and autoclaved.
To each tube was added, of the appropriate nisin stock, 0.00, 0.05, 0.10, 0.25, 0.50, 1.00, 1.50, and 2.00 g. Each tube was inoculated with 0.25 g of late-log W. viridescens NRRL B-1951 culture. The tubes were sealed and the absorbance at 600 nm was quickly measured (Hach DR900). The tubes were segregated by set and incubated at 31° C. overnight (15 Hr).
Each tube was thoroughly mixed to suspend settled cells and the absorbance was measured again at 600 nm. The final absorbance values for each sample were corrected for their respective background (taken just after inoculation, scattered light from added cells). The corrected absorption values were a measure of W. viridescens growth.
As indicated above, the absorbance of the culture was measured again at 600 nm as a measure of W. viridescens growth, and the absorbance values for each sample were corrected for their respective background. These corrected absorption values plotted against nisin concentration and minimum inhibiting concentration approximated via regression.
The results were fit via four parameter logistic regression (4PLR), combined into a continuous function with a second assay set (0.65-9.99 μg/g), and are shown in FIG. 11A.

[3] = test system: Weissella viridescens NRRL B-1951; experiment: HPLC of tube supernatants: glucose consumption and organic acid production; format: cell-based; details: for acetic acid in fermentation media: MRS media originally contained 7% acetate
Protocol: Each tube was sampled (1.5 mL conical polypropylene centrifuge tubes) and centrifuged at 10 kRPM for 10 minutes to remove and suspended cells. The resulting supernatants were filtered (0.2 μm nylon), diluted to 0.5% solids, and analyzed by high pressure liquid chromatography (HPLC, Agilent 1100, refractive index detector and BioRad Ainex HPX-87H column) for consumption of glucose and production of organic acids.
Note that the MRS media originally contained 7% acetate; therefore 7% should be subtracted from the values for acetate in Table 8 to ascertain the amount of acetate generated during the assay.

[4] = tube A2, nisin A 0.33 μg/g, 15 Hr
[5] = tube A3, nisin A 0.68 μg/g, 15 Hr
[6] = tube A4, nisin A 1.38 μg/g, 15 Hr
[7] = tube A5, nisin A 3.08 μg/g, 15 Hr
[8] = tube A6, nisin A 5.97 μg/g, 15 Hr
[9] = tube A7, nisin A 8.86 μg/g, 15 Hr
[10] = tube A8, nisin A 11.87 μg/g, 15 Hr

MSTKDFNLDLVSVSKKDSGASPRITSISLCTPGCKTGALMGCNMKTATCHCSIHVSK [nisin A]
concentration at which precipitation began [1]: > 400 µg/mL
MIC, separate experiment [2]: about 2.5 μg/g
minimal inhibitory concentration estimated from graphs ([2]; 15 Hr, 31° C.): 5 to 7 µg/g
91516 ABS 610f [2, 4]: 1.568
Corrected ABS 610rs [2, 4]: 1.106
91516 ABS 610f [2, 5]: 1.531
Corrected ABS 610rs [2, 5]: 1.063
91516 ABS 610f [2, 6]: 1.334
Corrected ABS 610rs [2, 6]: 0.868
91516 ABS 610f [2, 7]: 0.911
Corrected ABS 610rs [2, 7]: 0.473
91516 ABS 610f [2, 8]: 0.536
Corrected ABS 610rs [2, 8]: 0.116
91516 ABS 610f [2, 9]: 0.403
Corrected ABS 610rs [2, 9]: 0.001
91516 ABS 610f [2, 10]: 0.361
Corrected ABS 610rs [2, 10]: 0.001
Maltotriose in fermentation media ([3]; tube A2, nisin A 0.33 μg/g): 0.312 %/brix
ethanol in fermentation media ([3]; tube A2, nisin A 0.33 μg/g): 0.068 %/brix
formic acid in fermentation media ([3]; tube A2, nisin A 0.33 μg/g): 0.263 %/brix
fructose in fermentation media ([3]; tube A2, nisin A 0.33 μg/g): 0.000 %/brix
glucose in fermentation media ([3]; tube A2, nisin A 0.33 μg/g): 23.122 %/brix
glycerol in fermentation media ([3]; tube A2, nisin A 0.33 μg/g): 0.292 %/brix
lactic acid in fermentation media ([3]; tube A2, nisin A 0.33 μg/g): 6.884 %/brix
maltose in fermentation media ([3]; tube A2, nisin A 0.33 μg/g): 0.581 %/brix
acetic acid in fermentation media ([3]; tube A2, nisin A 0.33 μg/g): 7.967 %/brix
Maltotriose in fermentation media ([3]; tube A4, nisin A 1.38 μg/g): 0.298 %/brix
ethanol in fermentation media ([3]; tube A4, nisin A 1.38 μg/g): 0.062 %/brix
formic acid in fermentation media ([3]; tube A4, nisin A 1.38 μg/g): 0.282 %/brix
fructose in fermentation media ([3]; tube A4, nisin A 1.38 μg/g): 0.000 %/brix
glucose in fermentation media ([3]; tube A4, nisin A 1.38 μg/g): 24.138 %/brix
glycerol in fermentation media ([3]; tube A4, nisin A 1.38 μg/g): 0.319 %/brix
lactic acid in fermentation media ([3]; tube A4, nisin A 1.38 μg/g): 5.496 %/brix
maltose in fermentation media ([3]; tube A4, nisin A 1.38 μg/g): 0.815 %/brix
acetic acid in fermentation media ([3]; tube A4, nisin A 1.38 μg/g): 8.219 %/brix
Maltotriose in fermentation media ([3]; tube A5, nisin A 3.08 μg/g): 0.276 %/brix
ethanol in fermentation media ([3]; tube A5, nisin A 3.08 μg/g): 0.094 %/brix
formic acid in fermentation media ([3]; tube A5, nisin A 3.08 μg/g): 0.407 %/brix
fructose in fermentation media ([3]; tube A5, nisin A 3.08 μg/g): 0.000 %/brix
glucose in fermentation media ([3]; tube A5, nisin A 3.08 μg/g): 24.698 %/brix
glycerol in fermentation media ([3]; tube A5, nisin A 3.08 μg/g): 0.350 %/brix
lactic acid in fermentation media ([3]; tube A5, nisin A 3.08 μg/g): 4.672 %/brix
maltose in fermentation media ([3]; tube A5, nisin A 3.08 μg/g): 0.598 %/brix
acetic acid in fermentation media ([3]; tube A5, nisin A 3.08 μg/g): 8.296 %/brix
Maltotriose in fermentation media ([3]; tube A6, nisin A 5.97 μg/g): 0.288 %/brix
ethanol in fermentation media ([3]; tube A6, nisin A 5.97 μg/g): 0.057 %/brix
formic acid in fermentation media ([3]; tube A6, nisin A 5.97 μg/g): 0.280 %/brix
fructose in fermentation media ([3]; tube A6, nisin A 5.97 μg/g): 0.000 %/brix
glucose in fermentation media ([3]; tube A6, nisin A 5.97 μg/g): 25.304 %/brix
glycerol in fermentation media ([3]; tube A6, nisin A 5.97 μg/g): 0.328 %/brix
lactic acid in fermentation media ([3]; tube A6, nisin A 5.97 μg/g): 2.707 %/brix
maltose in fermentation media ([3]; tube A6, nisin A 5.97 μg/g): 0.941 %/brix
acetic acid in fermentation media ([3]; tube A6, nisin A 5.97 μg/g): 8.143 %/brix
Maltotriose in fermentation media ([3]; tube A7, nisin A 8.86 μg/g): 0.419 %/brix
ethanol in fermentation media ([3]; tube A7, nisin A 8.86 μg/g): 0.055 %/brix
formic acid in fermentation media ([3]; tube A7, nisin A 8.86 μg/g): 0.234 %/brix
fructose in fermentation media ([3]; tube A7, nisin A 8.86 μg/g): 0.000 %/brix
glucose in fermentation media ([3]; tube A7, nisin A 8.86 μg/g): 25.444 %/brix
glycerol in fermentation media ([3]; tube A7, nisin A 8.86 μg/g): 0.299 %/brix
lactic acid in fermentation media ([3]; tube A7, nisin A 8.86 μg/g): 1.521 %/brix
maltose in fermentation media ([3]; tube A7, nisin A 8.86 μg/g): 0.775 %/brix
acetic acid in fermentation media ([3]; tube A7, nisin A 8.86 μg/g): 7.899 %/brix
Maltotriose in fermentation media ([3]; tube A8, nisin A 11.87 μg/g): 0.305 %/brix
ethanol in fermentation media ([3]; tube A8, nisin A 11.87 μg/g): 0.071 %/brix
formic acid in fermentation media ([3]; tube A8, nisin A 11.87 μg/g): 0.233 %/brix
fructose in fermentation media ([3]; tube A8, nisin A 11.87 μg/g): 0.000 %/brix
glucose in fermentation media ([3]; tube A8, nisin A 11.87 μg/g): 25.537 %/brix
glycerol in fermentation media ([3]; tube A8, nisin A 11.87 μg/g): 0.301 %/brix
lactic acid in fermentation media ([3]; tube A8, nisin A 11.87 μg/g): 1.579 %/brix
maltose in fermentation media ([3]; tube A8, nisin A 11.87 μg/g): 0.739 %/brix
acetic acid in fermentation media ([3]; tube A8, nisin A 11.87 μg/g): 8.091 %/brix
